Measured values reported in patent US20080293818A1, “Regulator of Physiological Function of Ghrelin and Use Thereof” (priority 2004, published 2008).
Marks after values point to notes of the source that are not given here.

How the values were obtained:
Type in all cases: in vivo, mouse
[1] = test system: des-acyl and acyl-modified ghrelin peptides in the stomach; test: Molecular forms of stomach ghrelin peptide after ingestion (HPLC fractionation, C-RIA); conditions: mice; for stomach ghrelin modified by the acyl group corresponding to the ingested lipid: HPLC peak; for C6:0-ghrelin (n-hexanoyl ghrelin) concentration in the stomach / C8:0-ghrelin (n-octanoyl ghrelin) concentration in the stomach / C10:0-ghrelin (n-decanoyl ghrelin) concentration in the stomach / Des-acyl ghrelin concentration in the stomach / C10:1-ghrelin (n-decenoyl ghrelin) concentration in the stomach: 5% (w/w) in chow, 14 days, from 0.2 mg wet weight, C-RIA after HPLC, mean ± S.D.; for C10:1-ghrelin (n-decenoyl ghrelin) concentration in the stomach: fraction holds unidentified ghrelin molecules too
Procedure: (§1) Male C57BL/6J mice weighing 20-25 g (10-12 week old) were maintained under controlled temperature (21-23° C.) and light conditions (light on 0700-1900) with ad libitum access to food and water. Medium-chain fatty acids (MCFAs), i.e., n-hexanoic, n-octanoic, and n-lauric acids (Sigma-Aldrich Japan Co., Ltd., Tokyo), were dissolved in water at 5 mg/ml. n-Palmitic acid, a common long-chain fatty acid (LCFA) (Sigma-Aldrich Japan Co., Ltd., Tokyo), was mixed into standard laboratory chow (CLEA Rodent Diet CE-2, CLEA Japan, Osaka) at a concentration of 1% (w/w), to equilibrate the total intake amount of this lipid to the other medium-chain fatty acids contained in the food. Medium- and long-chain triglycerides (MCTs and LCTs), i.e., glyceryl trihexanoate, trioctanoate, tridecanoate and tripalmitates (Wako Pure Chemical, Osaka, Japan), were mixed with standard laboratory chow at a concentration of 5% (w/w). Whole stomach tissues from treated mice were collected at the indicated times (0-14 days) after ingesting the free fatty acid- or triacylglyceride-containing food. Fresh tissue samples from these mice were diced and boiled for 5 minutes in a 10-fold volume of water. The tissue-containing solution was then adjusted to 1M acetic acid after cooling and then homogenized with a Polytron mixer. The supernatant, obtained after centrifugation at 15,000 rpm for 15 minutes, was then lyophilized. The lyophilized material was dissolved in RIA buffer and subjected to ghrelin C- and N-RIA. To elucidate the forms of ghrelin peptides modified by different acyl groups, extracted stomach peptides were collected using a Sep-Pak Plus C18 cartridge (Waters, Milford, Mass.) and subjected to C18 RP-HPLC (Symmetry 300, 3.9×150 mm, Waters) with a linear gradient from 10 to 60% CH3CN/0.1% TFA at a flow rate of 1.0 ml/minute for 40 minutes. Five hundred micro-litter fractions were collected. Ghrelin peptide content in each fraction was measured by ghrelin C- and N-RIA as described above. Degradation of ghrelin was not observed during the extraction.
To clarify what molecular forms of ghrelin peptide are present after the ingestion of triacylglycerol (triacylglycerin), peptide extracts from stomachs of mouse fed chow containing glyceryl trihexanoate (C6:0-MCT), glyceryl trioctanoate (C8:0-MCT), glyceryl tridecanoate (C10:0-MCT), and standard laboratory chow (Control) were fractionated by HPLC, and measured for ghrelin immunoreactivity by C-RIA. […] Based on the observed retention times of synthetic acyl-modified ghrelin peptides, peaks a, d, h, and k corresponded to des-acyl ghrelin, peaks b, f, i, and 1 corresponded to n-octanoyl (C8:0) ghrelin, and peaks c, g, j, and m corresponded to n-decenoyl (10:1) ghrelin.
Male C57BL/6J mice were fed chow mixed with 5% (w/w) glyceryl trihexanoate (C6:0-MCT), glyceryl trioctanoate (C8:0-MCT), or glyceryl tri-decanoate (C10:0-MCT) for 14 days. The concentrations of des-acyl ghrelin, n-hexanoyl ghrelin (C6:0-ghrelin), n-octanoyl ghrelin (C8:0-ghrelin), n-decenoyl ghrelin (C10:1-ghrelin), and n-decanoyl ghrelin (C10:0-ghrelin) from stomach samples (from 0.2 mg wet weight) were measured by ghrelin C-RIA after HPLC fractionation.

[2] = test system: acyl-modified and total ghrelin in the stomach; test: Stomach ghrelin content after medium- to long-chain triacylglycerol ingestion (N-RIA / C-RIA); conditions: mice, 5% (w/w) in chow, two weeks; for production of acyl-modified ghrelin in stomach tissue: N-RIA
Procedure: (§2) RIAs specific for ghrelin were performed as previously described [D2]. Two polyclonal antibodies were raised in rabbits against the N-terminal (Gly^1-Lys^11 with O-n-octanoylation at Ser^3) and C-terminal (Gln^13-Arg^28) fragments of rat ghrelin. RIA incubation mixtures were composed of 100 μl of either standard ghrelin or an unknown sample, with 200 μl of antiserum diluted in RIA buffer (50 mM sodium phosphate buffer (pH 7.4), 0.5% BSA, 0.5% Triton-X100, 80 mM sodium chloride (NaCl), 25 mM disodium ethylenediamine-tetraacetate (EDTA 2-Na) and 0.05% sodium azide (NaN3)) containing 0.5% normal rabbit serum. Anti-rat ghrelin [D1-D11] and anti-rat ghrelin [D13-D28] antisera were used at final dilutions of 1/3,000,000 and 1/20,000, respectively. After a 12-hour incubation at 4° C., 100 μl of ^125I-labeled ligand (20,000 cpm) was added for an additional 36-hour incubation. Then, 100 μl of anti-rabbit goat antibody was added. After incubation for 24 hours at 4° C., free and bound tracers were separated by centrifugation at 3,000 rpm for 30 min. Pellet radioactivity was quantified in a gamma counter (ARC-600, Aloka, Tokyo). All assays were performed in duplicate at 4° C.
as §1
Orally ingested triacylglycerols are intraluminally hydrolyzed and absorbed through the gastro-intestinal mucosa as free fatty acids or monoglycerides. Thus, ingested triacylglycerols may serve as a source of free fatty acids [D26]. To examine if ingested triacylglycerols are used for acyl-modification of ghrelin, mice were fed chow mixed with 5% (w/w) glyceryl trihexanoate (C6), trioctanoate (C8), tridecanoate (C10), and tripalmintate (C16). After two weeks, gastric peptides were extracted. Ghrelin concentration in the stomach of these mice and in that from mice fed standard laboratory chow (Control) (n=8) are shown. The content of acyl-modified and total ghrelins was measured by N- and C-RIA. […]

[3] = test system: acyl-modified and total ghrelin in the stomach; test: Stomach ghrelin content after free fatty acid ingestion (N-RIA / C-RIA); conditions: mice, 14 days; for total ghrelin concentration in the stomach vs control: C-RIA
Procedure: as §2
Stomachs collected from either mice or rats were washed two times in phosphate buffered physiological saline (pH 7.4). After measuring the wet weight of each sample, the whole stomach tissue was diced and boiled for 5 minutes in a 10-fold volume of water to inactivate intrinsic proteases. After cooling on ice, boiled samples were adjusted to 1 M acetic acid-20 mM hydrochloric acid (HCl). Peptides were extracted following homogenization with a Polytron mixer (PT 6100, Kinematica AG, Littan-Luzern, Switzerland). Extract supernatants, isolated following 15-minute-centrifugation at 15,000 rpm (12,000×g), were lyophilized and stored at −80° C. The lyophilized samples were redissolved in either RIA buffer or calcium mobilization assay buffer prior to ghrelin RIA or calcium mobilization assay, respectively.
as §1, with “Degradation of ghrelin was not observed during the extraction.” left out

[4] = test system: n-heptanoyl ghrelin in the stomach; test: Molecular forms of stomach ghrelin after glyceryl triheptanoate ingestion (HPLC, C-RIA and N-RIA); conditions: mice, HPLC, C-RIA / N-RIA
Procedure: as §1
Male C57BL/6J mice weighing 20-25 g (10-12 week old) were maintained under controlled temperature (21-23° C.) and light conditions (light on 0700-1900) with ad libitum access to food and water. Glyceryl triheptanoate (Fluka Chemie GmbH, Buchs, Switzerland) was mixed with standard laboratory chow at a concentration of 5% (w/w). Four days after mice were fed glyceryl triheptanoate-containing food, stomachs (total 1,000 mg) were recovered from mice (n=7). The total consumption of glyceryl triheptanoate-containing food was approximately 13.5 g/mouse, amounting to 675 mg total glyceryl triheptanoate ingested by each mouse. Stomachs were minced and boiled for 5 minutes in 5× volumes of water to inactivate intrinsic proteases. […]

CCCC(=O)OCC(COC(=O)CCC)OC(=O)CCC [glyceryl tributyrate]
stomach ghrelin modified by the acyl group corresponding to the ingested lipid ([1]; C-RIA): not observed

CCCCCCCCCCCCC(=O)OCC(O)CO (centres unmarked) [glyceryl tridecanoate]
molar ratio of acyl-modified ghrelin/total ghrelin [2]: increased | production of acyl-modified ghrelin in stomach tissue [2]: no effect | C6:0-ghrelin (n-hexanoyl ghrelin) concentration in the stomach [1]: 22.1 ± 6.1 | C8:0-ghrelin (n-octanoyl ghrelin) concentration in the stomach [1]: 460.0 ± 70.6 | C10:0-ghrelin (n-decanoyl ghrelin) concentration in the stomach [1]: 95.1 ± 9.7^a) | Des-acyl ghrelin concentration in the stomach [1]: 181.4 ± 31.5^c) | C10:1-ghrelin (n-decenoyl ghrelin) concentration in the stomach [1]: 64.5 ± 14.2^b) | stomach ghrelin modified by the acyl group corresponding to the ingested lipid ([1]; C-RIA): increased

CCCCCC(=O)OCC(COC(=O)CCCCC)OC(=O)CCCCC [glyceryl trihexanoate]
molar ratio of acyl-modified ghrelin/total ghrelin [2]: decreased significantly | production of acyl-modified ghrelin in stomach tissue [2]: slightly suppressed | C6:0-ghrelin (n-hexanoyl ghrelin) concentration in the stomach [1]: 237.3 ± 35.0^a) | C8:0-ghrelin (n-octanoyl ghrelin) concentration in the stomach [1]: 358.0 ± 33.0^b) | C10:0-ghrelin (n-decanoyl ghrelin) concentration in the stomach [1]: 14.1 ± 5.2 | Des-acyl ghrelin concentration in the stomach [1]: 245.0 ± 11.0 | C10:1-ghrelin (n-decenoyl ghrelin) concentration in the stomach [1]: 133.5 ± 12.1^b) | n-octanoyl ghrelin concentration in the stomach vs control ([1]; HPLC peak f, C-RIA): significant decreases | stomach ghrelin modified by the acyl group corresponding to the ingested lipid ([1]; C-RIA): increased drastically

CCCCCCCCCCCCCCCC(=O)OCC(COC(=O)CCCCCCCCCCCCCCC)OC(=O)CCCCCCCCCCCCCCC [glyceryl tripalmitate]
production of acyl-modified ghrelin in stomach tissue [2]: no effect | stomach ghrelin modified by the acyl group corresponding to the ingested lipid ([1]; C-RIA): not observed

CCCCCCCCCC(=O)O [n-decanoic acid]
total ghrelin concentration in the stomach vs control [3]: No significant changes | gastric concentration of acyl-modified ghrelin vs control ([3]; N-RIA): No significant changes | stomach ghrelin modified by the acyl group corresponding to the ingested lipid ([1]; C-RIA): increased

CCCCCCC(=O)O [n-heptanoic acid]
appearance of peak b / d (n-heptanoyl ghrelin) immunoreactivity in stomach extracts [4]: also detected

CCCCCC(=O)O [n-hexanoic acid]
total ghrelin concentration in the stomach vs control [3]: No significant changes | gastric concentration of acyl-modified ghrelin vs control ([3]; N-RIA): No significant changes | stomach ghrelin modified by the acyl group corresponding to the ingested lipid ([1]; C-RIA): increased

CCCCCCCC(=O)O [n-octanoic acid]
ratio of n-octanoyl ghrelin/total ghrelin [3]: increased | total ghrelin concentration in the stomach vs control [3]: No significant changes | gastric concentration of acyl-modified ghrelin vs control ([3]; N-RIA): increased significantly | mean concentration of acyl-modified ghrelin in the stomach ([3]; N-RIA, n=8, control 1,795): 2,455 fmol/mg wet weight | stomach ghrelin modified by the acyl group corresponding to the ingested lipid ([1]; C-RIA): increased

CCCCCCCCCCCC(=O)OCC(COC(=O)CCCCCCCCCCC)OC(=O)CCCCCCCCCCC [trilaurate]
stomach ghrelin modified by the acyl group corresponding to the ingested lipid ([1]; C-RIA): not observed

n-palmitic acid
total ghrelin concentration in the stomach vs control [3]: No significant changes | gastric concentration of acyl-modified ghrelin vs control ([3]; N-RIA): No significant changes
